Source: article PMC10302146, “Dual Anta-Inhibitors Targeting Protein Kinase CK1δ and A2A Adenosine Receptor Useful in Neurodegenerative Disorders” (Molecules, 2023)

How the values were obtained:
N13 microglial cells [1] = assay: N13 cell viability (CellTiter 96 AQueous One, MTS), ligands alone; format: cell-based; conditions: absence of CK cocktail
Method: Starting from these observations, since this double effect could be a suitable strategy for the treatment of chronic neurodegenerative diseases, in which neuroinflammation plays a crucial role, these compounds were tested on an in vitro model of neuroinflammation in comparison with the reference compounds. The experiments were performed using N13 microglial cells. The colorimetric method CellTiter 96® AQueous One Solution Cell Proliferation assay was used to determine the number of live cells in cytotoxicity or proliferation assays. The tetrazole compound MTS was bio-reduced by the cells into formazan, a colored product soluble in the cellular medium. The percentage of cell viability was analyzed through an absorbance reading at 492 nm. The concentrations of ligands were chosen based on the results of binding assays. Specifically, lower, similar, and higher concentrations than the Ki value were used.
Experiments were performed in triplicate.

N13 microglial cells [2] = assay: N13 cell viability, CK cocktail 48 h pretreatment then ligand (A2AAR antagonist protocol); conditions: for effect after CK cocktail damage in the presence of NECA: compound 1 7.5 µM, compound 2 4.5 µM, NECA 10 µM; for effect after CK cocktail damage in the presence of NECA / counteraction of CK cocktail effect (cell viability): 60 min; for effect after CK cocktail damage in the presence of NECA / rescue of inflammatory damage (cell viability): after CK cocktail 20 ng/mL 48 h; for rescue of inflammatory damage (cell viability) / counteraction of CK cocktail effect (cell viability): lower concentrations (0.625 µM compound 1, 0.375 µM compound 2); for rescue of inflammatory damage (cell viability): 30 min; for counteraction of CK cocktail effect (cell viability): after CK cocktail 48 h
Method: Given the nature of compounds, dual A2A/CK1δ anta-inhibitors, their neuroprotective effect against a neuroinflammatory insult was investigated following two different approaches aimed at studying the antagonist activity on the A2AAR and the inhibitor effect on CK1δ. […] The concentrations used were 35, 65, and 400 µM at 60 min of incubation.
N13 cells were plated in 96-well plates at the confluence of 1 × 10^4 cells/well and incubated overnight. Cells were divided into two groups in order to study the activity of compounds on A2AAR and CK1δ (Scheme 1). […] Cells of the second group were pretreated with 2 µL at different concentrations of understudy ligand, or the reference compound PF670462, for 30 or 60 min and then with further addition of a proinflammatory cocktail of cytokines for 48 h (Scheme 1). After treatment, 20 µL of CellTiter 96® AQueous One Solution Reagent was added to each well to a final volume of 100 µL. After 1 h of incubation, absorbance was measured at 492 nm in the microplate reader GENiosPro. Cell viability was estimated as the relation between the OD of treated cells and the OD of untreated cells in percentage. An untreated control and a control with the solvent were run. Experiments were performed in triplicate.

CK1δ = test system: CK1δ; parameters: method as in PMID 37259317; conditions: cited from earlier work; for IC50: enzymatic inhibition

| Structure (SMILES) | cell viability vs. control (N13 microglial cells [1]; 0.625 µM, 30 min) | cell viability vs. control (N13 microglial cells [1]; 7.5 µM, 30 min) | cell viability vs. control (N13 microglial cells [1]; 7.5 µM, 60 min) | viability at 7.5 µM (N13 microglial cells [2]; N13, 48 h, read-out: cell viability) | effect after CK cocktail damage in the presence of NECA (N13 microglial cells [2]) | rescue of inflammatory damage (cell viability) (N13 microglial cells [2]) | counteraction of CK cocktail effect (cell viability) (N13 microglial cells [2]) | % Residual Activity at 10 μM ± sd (CK1δ) | % Residual Activity at 40 μM ± sd (CK1δ) | IC50 (CK1δ) | cell viability vs. control (N13 microglial cells [1]; 0.375 µM, 30 min) | cell viability vs. control (N13 microglial cells [1]; 4.5 µM, 60 min) | cell viability vs. control (N13 microglial cells [1]; 0.375 and 0.75 µM, 60 min) | cell viability vs. control (N13 microglial cells [1]; all concentrations (0.375, 0.75, 4.5 µM), 30 min) | cell viability (N13 microglial cells [2]) |
| --- | --- | --- | --- | --- | --- | --- | --- | --- | --- | --- | --- | --- | --- | --- | --- |
| CN(C)c1nc(N)c2ncn(C3CCCC3)c2n1 [compound 1, 9-Cyclopentyl-N2,N2-dimethyl-9H-purine-2,6-diamine] | 112% ± 2.4 | lower cell viability with respect to the control | cell viability similar to the control | 89% | significantly lower than that obtained in the absence of NECA | unable to rescue the inflammatory damage | able to counteract the effect of the CK cocktail | 27 ± 4.0% | 19 ± 9.4% | 1750 ± 200 nM | – | – | – | – | – |
| CN(C)c1nc(NCc2nc3ccccc3[nH]2)c2ncn(C3CCCC3)c2n1 [compound 2, N^6-methyl-(2-benzimidazolyl)-2-dimethyamino-9-cyclopentyladenine] | – | – | – | – | significantly lower than that obtained in the absence of NECA | unable to rescue the inflammatory damage | able to counteract the effect of the CK cocktail | 34 ± 5.0% | 22 ± 1.0% | 590 ± 200 nM | 86% ± 1.2 | 109% ± 1.4 | decrease in cell viability similar to 30 min of incubation | decrease in cell viability | 125% ± 3.1 |
